Data: PubChem BioAssay (NCI)
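Exposure lasted 48 hours, with cells grown in 96-well plates and compounds tested at five concentrations. TGI is the concentration that stops growth completely.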

What was measured:
Assay in all cases: inhibition of tumour cell growth, NCI panel, 48 h
KM12 colon = test system: KM12 colon
T-47D breast = test system: T-47D breast
SF-539 CNS = test system: SF-539 CNS
SF-295 CNS = test system: SF-295 CNS
RXF 393 renal = test system: RXF 393 renal
DU-145 prostate = test system: DU-145 prostate
U251 CNS = test system: U251 CNS
PC-3 prostate = test system: PC-3 prostate
MDA-N = test system: MDA-N
MOLT-4 leukemia = test system: MOLT-4 leukemia
SK-OV-3 ovarian = test system: SK-OV-3 ovarian
HS 578T breast = test system: HS 578T breast
CAKI-1 renal = test system: CAKI-1 renal
SW-620 colon = test system: SW-620 colon
OVCAR-5 ovarian = test system: OVCAR-5 ovarian
SK-MEL-2 melanoma = test system: SK-MEL-2 melanoma
A549 NSCLC = test system: A549 NSCLC
SF-268 CNS = test system: SF-268 CNS
NCI-H460 lung = test system: NCI-H460 lung
HCT-116 colon = test system: HCT-116 colon
SN12C renal = test system: SN12C renal
OVCAR-3 ovarian = test system: OVCAR-3 ovarian
SR leukemia = test system: SR leukemia
UO-31 renal = test system: UO-31 renal
MDA-MB-231 breast = test system: MDA-MB-231 breast
HOP-62 NSCLC = test system: HOP-62 NSCLC
SNB-19 CNS = test system: SNB-19 CNS
TK-10 renal = test system: TK-10 renal
ACHN renal = test system: ACHN renal
HCT-15 colon = test system: HCT-15 colon
NCI-H23 lung = test system: NCI-H23 lung
IGROV1 ovarian = test system: IGROV1 ovarian
786-0 renal = test system: 786-0 renal
UACC-62 melanoma = test system: UACC-62 melanoma
NCI-H226 lung = test system: NCI-H226 lung
BT-549 breast = test system: BT-549 breast
SK-MEL-28 melanoma = test system: SK-MEL-28 melanoma
SNB-75 CNS = test system: SNB-75 CNS
NCI-H522 lung = test system: NCI-H522 lung
EKVX NSCLC = test system: EKVX NSCLC
UACC-257 melanoma = test system: UACC-257 melanoma
CCRF-CEM leukemia = test system: CCRF-CEM leukemia
SK-MEL-5 melanoma = test system: SK-MEL-5 melanoma
HOP-92 NSCLC = test system: HOP-92 NSCLC
COLO 205 colon = test system: COLO 205 colon
MCF7 breast = test system: MCF7 breast
M14 melanoma = test system: M14 melanoma
OVCAR-4 ovarian = test system: OVCAR-4 ovarian
HCC-2998 colon = test system: HCC-2998 colon
OVCAR-8 ovarian = test system: OVCAR-8 ovarian
MALME-3M melanoma = test system: MALME-3M melanoma
RPMI-8226 leukemia = test system: RPMI-8226 leukemia
MDA-MB-435 = test system: MDA-MB-435
HT29 colon = test system: HT29 colon
A498 renal = test system: A498 renal
HL-60(TB) leukemia = test system: HL-60(TB) leukemia
NCI/ADR-RES ovarian = test system: NCI/ADR-RES ovarian
LOX IMVI melanoma = test system: LOX IMVI melanoma
K-562 leukemia = test system: K-562 leukemia

Measured: TGI

COc1cc(OC)c2nc3occc3c(OC)c2c1
> 100 µM: KM12 colon | T-47D breast | SF-539 CNS | SF-295 CNS | RXF 393 renal | DU-145 prostate | U251 CNS | PC-3 prostate | MDA-N | MOLT-4 leukemia | SK-OV-3 ovarian | HS 578T breast | CAKI-1 renal | SW-620 colon | OVCAR-5 ovarian | SK-MEL-2 melanoma | A549 NSCLC | SF-268 CNS | NCI-H460 lung | HCT-116 colon | SN12C renal | OVCAR-3 ovarian | SR leukemia | UO-31 renal | MDA-MB-231 breast | HOP-62 NSCLC | SNB-19 CNS | TK-10 renal | ACHN renal | HCT-15 colon | NCI-H23 lung | IGROV1 ovarian | 786-0 renal | UACC-62 melanoma | NCI-H226 lung | BT-549 breast | SK-MEL-28 melanoma | SNB-75 CNS | NCI-H522 lung | EKVX NSCLC | UACC-257 melanoma | CCRF-CEM leukemia | SK-MEL-5 melanoma | HOP-92 NSCLC | COLO 205 colon | MCF7 breast | M14 melanoma | OVCAR-4 ovarian | HCC-2998 colon | OVCAR-8 ovarian | MALME-3M melanoma | RPMI-8226 leukemia | MDA-MB-435 | HT29 colon | A498 renal | HL-60(TB) leukemia | NCI/ADR-RES ovarian | LOX IMVI melanoma

CCc1n[nH]c(=O)n1N1C(=O)C2CCCCC2C1=O (centres undefined)
> 100 µM: KM12 colon | T-47D breast | SF-295 CNS | RXF 393 renal | DU-145 prostate | U251 CNS | PC-3 prostate | MDA-N | MOLT-4 leukemia | SK-OV-3 ovarian | HS 578T breast | CAKI-1 renal | SW-620 colon | OVCAR-5 ovarian | SK-MEL-2 melanoma | A549 NSCLC | SF-268 CNS | HCT-116 colon | SN12C renal | OVCAR-3 ovarian | SR leukemia | UO-31 renal | MDA-MB-231 breast | HOP-62 NSCLC | TK-10 renal | K-562 leukemia | ACHN renal | HCT-15 colon | NCI-H23 lung | IGROV1 ovarian | 786-0 renal | UACC-62 melanoma | NCI-H226 lung | BT-549 breast | SK-MEL-28 melanoma | SNB-75 CNS | NCI-H522 lung | EKVX NSCLC | UACC-257 melanoma | CCRF-CEM leukemia | SK-MEL-5 melanoma | HOP-92 NSCLC | COLO 205 colon | MCF7 breast | M14 melanoma | OVCAR-4 ovarian | HCC-2998 colon | OVCAR-8 ovarian | MALME-3M melanoma | RPMI-8226 leukemia | MDA-MB-435 | HT29 colon | A498 renal | HL-60(TB) leukemia | NCI/ADR-RES ovarian | LOX IMVI melanoma
